Data from PubChem BioAssay (NCI).
Values joined by “and” are separate entries in the source; they are usually repeats but may differ in a detail not shown here. Equal entries are not always repeated.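 Following 48 hours of exposure in 96-well plates, responses at five concentrations were used to interpolate endpoints linearly. GI50 = concentration required for 50% inhibition of growth. Definition used: TGI = concentration required for complete inhibition of growth.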

What was measured:
Assay in all cases: DTP human tumour cell line panel, 48 h
SR leukemia = system: SR leukemia
U251 CNS = system: U251 CNS
RXF 393 renal = system: RXF 393 renal
IGROV1 ovarian = system: IGROV1 ovarian
PC-3 prostate = system: PC-3 prostate
CAKI-1 renal = system: CAKI-1 renal
SK-MEL-2 melanoma = system: SK-MEL-2 melanoma
MDA-MB-231 breast = system: MDA-MB-231 breast
SNB-19 CNS = system: SNB-19 CNS
K-562 leukemia = system: K-562 leukemia

SMILES	GI50 (SR leukemia)	TGI (SR leukemia) [µM]	GI50 (U251 CNS)	TGI (U251 CNS) [µM]	GI50 (RXF 393 renal)	TGI (RXF 393 renal) [µM]	GI50 (IGROV1 ovarian)	TGI (IGROV1 ovarian)	GI50 (PC-3 prostate) [µM]	TGI (PC-3 prostate)	GI50 (CAKI-1 renal)	TGI (CAKI-1 renal) [µM]	GI50 (SK-MEL-2 melanoma)	TGI (SK-MEL-2 melanoma)	GI50 (MDA-MB-231 breast)	TGI (MDA-MB-231 breast)	GI50 (SNB-19 CNS)	TGI (SNB-19 CNS)	GI50 (K-562 leukemia) [µM]	TGI (K-562 leukemia) [µM]
CSc1nc2nc(-c3ccccc3)c(C)c-2c2n1C(C)C(=O)N2 (stereo not drawn)	39.3 µM	> 100	68.2 µM	> 100	30.6 µM	> 100	41.5 µM	> 100 µM	31.3	> 100 µM	53.6 µM	> 100	30.1 µM	78.1 µM	83.4 µM	> 100 µM	38.5 µM	> 100 µM	41.5	> 100
COc1cc2nnc3c4cccnc4[nH]c3c2cc1OC	0.117 µM and 0.0395 µM		1.66 µM and 0.918 µM		1.17 µM and 0.707 µM		1.02 µM and 1.73 µM	19.4 µM and 5.83 µM		50 µM and > 100 µM	1.17 µM and 0.184 µM		13.8 µM and 11.3 µM	50 µM and 37.9 µM	3.14 µM and 2.69 µM	50 µM and > 100 µM	9.04 µM and 2.77 µM	42.4 µM and 15.4 µM	0.577	50
COc1ccc(-c2cc(/C=C/C(=O)c3ccc(N)cc3)[nH]n2)cc1OC	0.587 µM	5.31	1.74 µM	3.66	2.15 µM	5.12	4.56 µM	19 µM	3.71	19.8 µM			8.44 µM	22.2 µM	4.42 µM	17.2 µM	4.36 µM	18 µM	2.03	36.4
Nc1nc(=S)c2ncn(C3OC(COP(=O)(O)O)C(O)C3O)c2[nH]1 (stereo not drawn)	0.268 µM	> 100	8.08 µM	> 100	1.43 µM	9.75	5.23 µM	> 100 µM	3.44	> 100 µM	0.544 µM	> 100	3.89 µM	> 100 µM	0.717 µM	> 100 µM	> 100 µM	> 100 µM	0.965	> 100
CC(C)Cc1ccc(C(C)/C=C2\CCC(CN(C)C)C2=O)cc1 (stereo not drawn)		9.41		30.4		35.1		18 µM		22.4 µM		32.7		28.6 µM		4.52 µM		26.3 µM		8.04
Cn1c(=O)c2nc3sc4c(n3c2n(C)c1=O)C(=O)c1ccccc1C4=O		> 73		> 57.5		> 55.3		> 69 µM		> 76.1 µM		> 100		> 75.7 µM		> 64.6 µM		> 66 µM		> 100
CCOC(=O)/C(=C\c1cccc(C)c1)C(C)=O		84.5		26.2		24.9		40.8 µM		28.3 µM		98.8		26.1 µM		28.9 µM		36.7 µM		> 100
O=C1c2ccccc2C(=O)c2c(NC3CCCCC3)ccc(Nc3ccc(S(=O)(=O)O)cc3)c21		> 100		88.7		> 100		> 100 µM		83 µM		> 100		99.8 µM		69.9 µM		> 100 µM		> 100
Cc1cnc(C(=O)NNc2nc3sc4c(c3c(=O)[nH]2)C(C)CCC4)cn1 (stereo not drawn)	0.484 µM	29.2	0.603 µM	> 100	1.76 µM	8.2	0.759 µM	15.8 µM	2.08	66.6 µM	1.5 µM	18.5	6.64 µM	37.4 µM	1.85 µM	18.1 µM	1.29 µM	> 100 µM	2.66	> 100
Cc1cc(Cl)nc(N(CCNc2ccnc3cc(Cl)ccc23)Cc2ccco2)n1	1.81 µM	4.39	1.64 µM	3.09	1.24 µM	2.89	1.75 µM	3.66 µM	2.03	5.49 µM			2.18 µM	4.8 µM	1.85 µM	3.76 µM	3.54 µM	16.2 µM	1.54	3.35
CCCCS(=O)c1sc2nc(-c3cccs3)cc(-c3ccccc3)c2c1N (stereo not drawn)	6.46 µM	> 68	18 µM	> 100	10.6 µM	58	20.3 µM	> 100 µM	3.45	> 86.6 µM	10.3 µM	> 100	17.3 µM	47.8 µM	18.2 µM	> 100 µM	18.7 µM	> 100 µM	5.96	> 100
CN(C)c1ccc(-c2cc(-c3ccc(Nc4nc(Nc5ccc(Cl)cc5)nc(Nc5ccc(Cl)cc5)n4)cc3)nc(N)c2C#N)cc1	1.32 µM	9.83	10.7 µM	> 100	1.96 µM	6.77	4.53 µM	> 100 µM	1.53	7.44 µM	> 100 µM	> 100	10.8 µM	86.7 µM	5.51 µM	60.3 µM	> 100 µM	> 100 µM	5.2	> 100
CCCCCCCCCCCC[C@@H](O)[C@H]1CC[C@H]([C@H](O)CC[C@H](O)[C@@H]2CC[C@@H](CCCCCCCC3=C[C@H](C)OC3=O)O2)O1	> 50 µM	> 50	8.63 µM	> 50		> 50	8.89 µM	> 50 µM	3.3	> 50 µM		> 50		> 50 µM		> 50 µM	9.69 µM	> 50 µM	3	> 50
CCCCCCCCCCCCCCNC(=O)Nc1ccc(Cl)c(Cl)c1		> 23.6	3.15 µM	> 100	4.01 µM	> 26.3	1.33 µM		2.67	> 37.1 µM			1.93 µM	5.69 µM	2.56 µM	7.64 µM	4.16 µM	> 100 µM	8.04	> 100
